Reference: patent publication USRE42890E1, “Furazanobenzimidazoles” (Basilea Pharmaceutica AG, priority 2003, dated 2011)
Like-named read-outs stand apart in the source and are kept apart here.

Assays:
[1] = system: Jurkat; assay: MTS proliferation assay, Jurkat; assay type: cell-based, human; conditions: 72 h incubation, read-out: MTS proliferation assay IC 50 Jurkat
Method: (§1) Cell lines are cultured in RPMI-1640 tissue culture medium containing either 5% or 10% fetal calf serum, 0.05 mM 2-mercaptoethanol, 2 mM glutamine and penicillin/streptomycin 50 μg/ml (complete medium) (Sigma, Buchs, Switzerland). General growth conditions are 37° C. and 7.5% CO2.
(§2) The following human cell lines (either EGFP transfected or not) are being used: HeLa (ATCC: CCL-2), KB (ATCC: CCL-17), MCF7 (ATCC: HTB-22), SK-BR-3 (ATCC: HTB-30), SK-Mel 1 (ATCC: HTB-67), SK-Mel 28 (ATCC: HTB-72), PC-3 (ATCC: CRL-1435), SW 480 (ATCC: CCL-228), NCl-H460 (ATCC: HTB-177), NCl-H1792 (ATCC: CRL-5895), HT1080 (ATCC: CCL-21), Jurkat (ATCC: TIB-152), Ramos (ATCC: CRL-1596), Raji (ATCC: CCL-86), H9 (ATCC: HTB-176), Hut78 (ATCC: TIB-161), K562 (ATCC: CCL 243), HL-60 (ATCC: CCL 240), U-87MG (ATCC: HTB-14), HepG2 (ATCC: HB-8065), U-2 OS (ATCC: HTB-96), Saos-2 (ATCC: HTB-85), U937 (ATCC: CRL 1593), Hs 578T (ATCC: HTB 126), HBL-100 (ATCC: HTB 124), Molt-4 (ATCC: CRL 1582).
(§3) The assay is performed in 96 well tissue culture plates. The cells (range: 1.5*10^3-10^4) are seeded out in 80 μl complete medium 24 h prior to compound treatment. The test compounds are added in 20 μl complete medium containing max 5% DMSO. The final compound concentrations in the assays are 10 μM, 3 μM, 1 μM and 0.3 μM, respectively. The assay plates are incubated for 72 h at culture conditions. The MTS reagent is prepared according to the manufacturer's protocol (Promega G1111). 20 μl MTS reagent are added to each well, the assay plates are quickly spun and incubated for another 3 h at culture conditions. Subsequently, the plates are shortly shaked and absorption measured with a microplate-reader at 492 nm.

[2] = system: MRC5; assay: MTS proliferation assay, MRC5; assay type: cell-based; conditions: MRC5, 72 h incubation, read-out: MTS proliferation assay IC 50 MRC5
Method: as §1, §3

[3] = system: adherent cells or suspension cells; assay: Hoechst 33342 nuclear staining (fraction of apoptotic nuclei); assay type: cell-based; set-up: key: 0 relating to no activity; 1 relating to weak activity comprising less than 70% of the cells; score 2 relating to strong activity comprising more than 70% of the cells
Method: as §1
This assay is performed in 96 well tissue culture plates. Appropriate number of cells (adherent cells: 3-5*10^3, suspension cells: 8-10*10^3) are being seeded out in 80 μl complete medium. Adherent cells are incubated for 24 h for proper spreading out before addition of test compounds while suspension cells are immediately treated with test compounds after seeding out. The test compounds are added in 20 μl complete medium containing max 5% DMSO. […] After 24 h or 48 h incubation at culture conditions, 10 μl medium containing Hoechst 33342 dye (Sigma B-2261) at 2-5 μg/ml are added to each well. The assay plates are then further incubated for 30 minutes and subsequently analyzed with a standard inverted fluorescence microscope.
The readout allows the determination of the fraction of apoptotic nuclei as well as other morphological criteria specific for apoptosis as a function of the treatment. The following scores are used: 0 relating to no activity, 1 relating to weak activity comprising less than 70% of the cells and score 2 relating to strong activity comprising more than 70% of the cells.

[4] = system: HeLa; assay: MTS proliferation assay, HeLa; assay type: cell-based, human; conditions: 72 h incubation, read-out: MTS proliferation assay IC 50 HeLa
Method: as §1, §2, §3

| Structure (SMILES) | IC50 [1] | Hoechst 33342 nuclear staining score ([3]; H460, conc 0.01 μm) | Hoechst 33342 nuclear staining score ([3]; H460, conc 0.1 μm) | Hoechst 33342 nuclear staining score ([3]; H460, conc 1 μm) | Hoechst 33342 nuclear staining score ([3]; HeLa, conc 0.01 μm) | Hoechst 33342 nuclear staining score ([3]; HeLa, conc 0.1 μm) | Hoechst 33342 nuclear staining score ([3]; HeLa, conc 1 μm) | Hoechst 33342 nuclear staining score ([3]; Jily, conc 0.01 μm) | Hoechst 33342 nuclear staining score ([3]; Jily, conc 0.1 μm) | Hoechst 33342 nuclear staining score ([3]; Jily, conc 1 μm) | Hoechst 33342 nuclear staining score ([3]; Jurkat, conc 0.01 μm) | Hoechst 33342 nuclear staining score ([3]; Jurkat, conc 0.1 μm) | Hoechst 33342 nuclear staining score ([3]; Jurkat, conc 1 μm) | Hoechst 33342 nuclear staining score ([3]; MRC5, conc 0.01 μm) | Hoechst 33342 nuclear staining score ([3]; MRC5, conc 0.1 μm) | Hoechst 33342 nuclear staining score ([3]; MRC5, conc 1 μm) | Hoechst 33342 nuclear staining score ([3]; PBLs, conc 0.01 μm) | Hoechst 33342 nuclear staining score ([3]; PBLs, conc 0.1 μm) | Hoechst 33342 nuclear staining score ([3]; PBLs, conc 1 μm) | IC50 [4] | further results |
| --- | --- | --- | --- | --- | --- | --- | --- | --- | --- | --- | --- | --- | --- | --- | --- | --- | --- | --- | --- | --- | --- |
| Nc1nonc1-c1nc2ccccc2n1CC(=O)c1ccccc1Cl [Example 32] | 100 to 1000 nM | 0 | 0 | 0 | 0 | 0 | 0 | 0 | 0 | 0 | 0 | 0 | 2 (score 2 relating to strong activity comprising more than 70% of the cells) | 0 | 0 | 0 | 0 | 0 | 0 | 100 to 1000 nM | IC50 [2]: > 1000 nM |
| Nc1nonc1-c1nc2ccccc2n1CC(=NO)c1ccccc1Cl (mixture of isomers) [Example 33] | > 1000 nM | 0 | 0 | 0 | 0 | 0 | 0 | 0 | 0 | 0 | 0 | 0 | 0 | 0 | 0 | 0 | 0 | 0 | 0 | > 1000 nM | IC50 [2]: > 1000 nM |
| CNc1nonc1-c1nc2ccccc2n1CC(=O)c1ccc(Cl)cc1 [Example 3, Methyl-{4-[1-(4-chlorophenacyl)-1H-benzimidazol-2-yl]-furazan-3-yl}-amine] | – | – | – | – | 0 | 0 | 0 | – | – | – | 0 | 0 | 0 | 0 | 0 | 0 | 0 | 0 | 0 | – | IC50 ([1]; Homo sapiens): 100 to 1000 nM; IC50 ([2]; Homo sapiens): > 1000 nM |
| Nc1nonc1-c1nc2ccccc2n1CC(=NO)c1ccccc1 (mixture of isomers) [Example 17] | > 1000 nM | 0 | 0 | 0 | 0 | 0 | 0 | 0 | 0 | 0 | 0 | 0 | 0 | 0 | 0 | 0 | 0 | 0 | 0 | > 1000 nM | – |
